Literature values as cited in paper PMC3015105 (Bioorganic & medicinal chemistry letters, 2010).

How the values were obtained:
[1] = biological target: human dopamine transporter (hDAT) (Homo sapiens, UniProt Q01959); details: read-out: IC50 DAT inhibition; reported by Carroll
Chain of human dopamine transporter (hDAT) (Q01959 whole entry): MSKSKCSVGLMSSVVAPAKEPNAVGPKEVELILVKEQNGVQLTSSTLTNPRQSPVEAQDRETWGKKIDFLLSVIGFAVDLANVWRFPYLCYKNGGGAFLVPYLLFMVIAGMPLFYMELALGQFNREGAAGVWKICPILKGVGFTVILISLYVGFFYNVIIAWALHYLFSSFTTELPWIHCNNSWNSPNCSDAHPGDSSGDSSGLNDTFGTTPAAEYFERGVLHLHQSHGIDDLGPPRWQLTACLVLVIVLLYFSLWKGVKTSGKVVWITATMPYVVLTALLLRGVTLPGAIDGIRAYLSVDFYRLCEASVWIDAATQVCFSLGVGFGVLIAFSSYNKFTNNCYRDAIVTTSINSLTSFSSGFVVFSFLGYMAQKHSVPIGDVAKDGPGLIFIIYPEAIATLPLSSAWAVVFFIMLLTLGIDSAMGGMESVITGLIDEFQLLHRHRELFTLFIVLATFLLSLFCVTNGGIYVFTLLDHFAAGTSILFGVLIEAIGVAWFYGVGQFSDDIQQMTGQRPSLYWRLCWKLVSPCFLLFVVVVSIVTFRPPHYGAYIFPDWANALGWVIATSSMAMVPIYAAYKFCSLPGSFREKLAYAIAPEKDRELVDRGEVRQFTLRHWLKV

Structure (SMILES)	duration of action	immediate effect (onset)	IC50 [1]
COC(=O)[C@H]1[C@@H](OC(=O)c2ccccc2)C[C@@H]2CC[C@H]1N2C [Cocaine]	10 to 15 min	< 15 s	–
Cc1cc(C2C3CCC(CC2c2ccc(Cl)cc2)S3)on1 (stereo not drawn) [2β-(3-methylisoxazol-5-yl)-3β-(4-chlorophenyl)-8-thiabicyclo[3.2.1]octane]	–	–	0.59 nM
